As a reminder, the ED50 is the midpoint of the dose-response relation. Low values mean greater potency, high ones weaker potency.

Assay [1] addresses Neprilysin (Homo sapiens, UniProt P08473). Description: Tested in vitro for inhibition of neutral endopeptidase (NEP). Particulars: read-out: I50.
Assay [2] concerns Rattus norvegicus. Description: Tested in vivo for inhibition of angiotensin I -induced pressor response in normotensive rats after iv administration. It counts as functional.
The target in assay [3] is Angiotensin-converting enzyme (Homo sapiens, UniProt P12821). Description: Tested in vitro for inhibition of Angiotensin converting enzyme (ACE). Particulars: read-out: I50.
Chain of Angiotensin-converting enzyme (P12821 whole entry): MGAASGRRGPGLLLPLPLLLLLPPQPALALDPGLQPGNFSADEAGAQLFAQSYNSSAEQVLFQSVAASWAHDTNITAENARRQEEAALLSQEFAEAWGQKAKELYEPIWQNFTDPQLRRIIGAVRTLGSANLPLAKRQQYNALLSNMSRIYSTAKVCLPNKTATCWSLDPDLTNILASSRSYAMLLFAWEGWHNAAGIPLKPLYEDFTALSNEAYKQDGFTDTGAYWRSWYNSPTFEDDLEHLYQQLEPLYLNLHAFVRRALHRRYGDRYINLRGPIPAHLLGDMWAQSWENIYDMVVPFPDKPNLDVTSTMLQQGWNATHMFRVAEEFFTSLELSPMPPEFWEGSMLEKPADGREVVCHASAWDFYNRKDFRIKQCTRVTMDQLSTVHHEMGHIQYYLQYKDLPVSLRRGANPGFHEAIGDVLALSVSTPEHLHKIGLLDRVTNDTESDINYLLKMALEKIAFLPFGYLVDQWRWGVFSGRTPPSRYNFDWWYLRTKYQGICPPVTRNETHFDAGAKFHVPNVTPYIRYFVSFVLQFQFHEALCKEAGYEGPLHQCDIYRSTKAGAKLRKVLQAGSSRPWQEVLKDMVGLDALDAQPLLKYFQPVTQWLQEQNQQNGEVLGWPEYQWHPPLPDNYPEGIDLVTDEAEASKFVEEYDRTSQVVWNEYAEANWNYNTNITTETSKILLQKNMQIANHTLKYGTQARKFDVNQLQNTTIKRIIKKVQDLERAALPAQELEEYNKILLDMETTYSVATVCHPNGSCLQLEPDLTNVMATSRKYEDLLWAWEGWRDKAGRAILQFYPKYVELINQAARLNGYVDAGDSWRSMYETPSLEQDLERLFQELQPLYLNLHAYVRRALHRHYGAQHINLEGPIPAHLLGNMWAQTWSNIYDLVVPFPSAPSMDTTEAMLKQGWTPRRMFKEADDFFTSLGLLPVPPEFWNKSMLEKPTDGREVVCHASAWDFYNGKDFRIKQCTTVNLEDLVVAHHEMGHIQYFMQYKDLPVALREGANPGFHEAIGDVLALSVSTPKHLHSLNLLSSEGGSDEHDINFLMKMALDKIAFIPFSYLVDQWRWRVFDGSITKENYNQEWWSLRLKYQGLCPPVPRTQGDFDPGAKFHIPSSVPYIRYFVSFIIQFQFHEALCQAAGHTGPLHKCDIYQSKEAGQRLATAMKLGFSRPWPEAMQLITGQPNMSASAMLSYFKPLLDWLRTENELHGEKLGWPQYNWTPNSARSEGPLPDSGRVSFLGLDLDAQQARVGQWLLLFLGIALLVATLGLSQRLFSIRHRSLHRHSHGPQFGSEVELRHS

Chain of Neprilysin (P08473 whole entry): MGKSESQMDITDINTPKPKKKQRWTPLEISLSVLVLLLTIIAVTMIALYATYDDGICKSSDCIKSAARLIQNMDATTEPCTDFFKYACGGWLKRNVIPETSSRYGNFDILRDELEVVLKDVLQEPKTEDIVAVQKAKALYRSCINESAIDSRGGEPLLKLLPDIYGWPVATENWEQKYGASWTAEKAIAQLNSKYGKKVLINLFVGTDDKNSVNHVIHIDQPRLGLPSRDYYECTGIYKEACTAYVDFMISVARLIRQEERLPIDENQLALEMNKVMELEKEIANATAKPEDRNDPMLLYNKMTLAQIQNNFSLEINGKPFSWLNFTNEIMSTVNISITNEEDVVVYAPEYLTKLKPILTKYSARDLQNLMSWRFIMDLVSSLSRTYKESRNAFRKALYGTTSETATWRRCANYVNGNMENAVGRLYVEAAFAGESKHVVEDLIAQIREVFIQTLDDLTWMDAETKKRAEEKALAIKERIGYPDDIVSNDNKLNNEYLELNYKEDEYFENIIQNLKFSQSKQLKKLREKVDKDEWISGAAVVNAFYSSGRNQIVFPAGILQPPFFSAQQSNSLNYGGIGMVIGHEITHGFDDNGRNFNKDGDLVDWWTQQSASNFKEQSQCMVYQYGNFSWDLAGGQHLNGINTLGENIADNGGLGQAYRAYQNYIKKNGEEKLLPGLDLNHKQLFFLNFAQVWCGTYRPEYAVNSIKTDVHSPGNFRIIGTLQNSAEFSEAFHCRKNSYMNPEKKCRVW

Consider `C[C@H](NC(=O)[C@@H](S)Cc1ccccc1)C(=O)N1CCC[C@H]1C(=O)O`, for which the IC50 in assay [1] came out at 400 nM; in assay [3], 30 nM. The same compound returned an ED50 in assay [2] of 0.06 µmol/kg.

On to `O=C(O)CN1C(=O)[C@@H](NC(=O)[C@@H](S)Cc2ccccc2)CSc2ccccc21`, for which the IC50 in assay [1] is 64 nM; in assay [3] it was 13 nM. The ED50 in assay [2] is 0.14 µmol/kg.

Consider `C[C@H](NC(=O)[C@@H](CS)Cc1ccccc1)C(=O)N1CCC[C@H]1C(=O)O`, for which the IC50 came out at 6.6 nM in assay [1] and 4 nM in assay [3]. For the same compound, the ED50 in assay [2] came to 0.5 µmol/kg.

Take `O=C(O)CCN1C(=O)[C@@H](NC(=O)[C@@H](S)Cc2ccccc2)CSc2ccccc21`: the figures for the IC50 in assay [1] and in assay [3] were 2.2 nM and 14 nM, respectively. Also, in assay [2], the ED50 came out at 0.33 µmol/kg.

For `O=C(O)CN1C(=O)[C@@H](NC(=O)[C@@H](S)Cc2ccccc2)CCc2ccccc21`, in assay [1], the IC50 turned out to be 6.1 nM. The compound also displayed an ED50 in assay [2] of 0.02 µmol/kg.

With `O=C(O)CCN1C(=O)[C@@H](NC(=O)[C@@H](S)Cc2ccccc2)CCc2ccccc21`, the results for the IC50 in assay [1] and in assay [3] were 2.4 nM and 36 nM, respectively. The compound also had an ED50 in assay [2] of 1.34 µmol/kg.

In the case of `O=C(O)CCN1C(=O)[C@@H](NC(=O)[C@@H](S)Cc2ccccc2)COc2ccccc21`, the IC50 turned out to be 1.2 nM in assay [1] and 31 nM in assay [3]. Also, in assay [2], the ED50 was 1.2 µmol/kg.

`C[C@@H]1Oc2ccccc2N(CC(=O)O)C(=O)[C@H]1NC(=O)[C@@H](S)Cc1ccccc1`: the IC50 in assay [1] came to 5.2 nM; in assay [3], 36 nM. Besides, the ED50 in assay [2] stood at 2.1 µmol/kg.

Regarding `O=C(O)CN1C(=O)[C@@H](NC(=O)[C@@H](CS)Cc2ccccc2)COc2ccccc21`, the IC50 stood at 0.6 nM in assay [1] and 4.4 nM in assay [3]. For the same compound, the median effective dose (ED50) in assay [2] was found to be 5.8 µmol/kg.

As to `O=C(O)CCN1C(=O)[C@@H](NC(=O)[C@@H](CS)Cc2ccccc2)CCc2ccccc21`, the results for the IC50 in assay [1] and in assay [3] were 1.7 nM and 36 nM, respectively. In assay [2], this compound gave an ED50 of 13.3 µmol/kg.

In the case of `O=C(O)CN1C(=O)[C@@H](NC(=O)[C@@H](CS)Cc2ccccc2)CCc2ccccc21`, the IC50 in assay [1] came out at 2.1 nM; in assay [3] it was 4.8 nM. This compound also registered an ED50 in assay [2] of 0.52 µmol/kg.

Take `O=C(O)CN1C(=O)[C@@H](NC(=O)[C@@H](CS)Cc2ccccc2)CSc2ccccc21`: the values for the IC50 in assay [1] and in assay [3] were 1 nM and 17 nM, respectively. Besides, the 50% effect level in assay [2] (ED50) was put at a dose of 4 µmol/kg.

As for `C[C@H]1Oc2ccccc2N(CCC(=O)O)C(=O)[C@H]1NC(=O)[C@@H](S)Cc1ccccc1`, the IC50 in assay [1] came to 83 nM; in assay [3], 18 nM.

Turning to `C[C@H]1Oc2ccccc2N(CC(=O)O)C(=O)[C@H]1NC(=O)[C@@H](S)Cc1ccccc1`, the values for the IC50 in assay [1] and in assay [3] were 118 nM and 13 nM, respectively. Further, in assay [2], the ED50 turned out to be 0.015 µmol/kg.

Take `O=C(O)CN1C(=O)[C@@H](NC(=O)[C@@H](S)Cc2ccccc2)COc2ccccc21`: the figures for the IC50 in assay [1] and in assay [3] were 3.1 nM and 28 nM, respectively. The same compound had an ED50 in assay [2] of 0.26 µmol/kg.

These data come from ChEMBL document CHEMBL1127937, “Dual metalloprotease inhibitors. I. constrained peptidomimetics of mercaptoacyl dipeptides” (Bioorg Med Chem Lett, 1994).
